≈ marks a conversion by molar mass, not a printed value. Like-named read-outs stand apart in the source and are kept apart here. Numbered stars: 1 amine (or outer) side, 2 acyl side, 3 side chain; on linkers, the order of the positions; unused ones are H or OH. Bridge positions count the residues as written; N and C are the ends. Square brackets hold non-standard residues; d marks the D form. Peptide text beside a SMILES is read from it. dαMeDab(Me) = CN(CC[C@@](C)(N[*:1])C(=O)[*:2])[*:3]; X1 = O=C([C@]1(N[*:1])CCN([*:3])C1)[*:2]; X2 = O=C(OCC=CCOC(=O)[*:2])[*:1]
Tests used:
[1] = Solubility in DPBS (A280 of supernatant); format: physicochemical; conditions: DPBS
Summary of the method: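 Dried peptide reconstituted in DPBS in triplicate, vortexed, sonicated and centrifuged. Supernatant A280 measured; concentration calculated using the tryptophan extinction coefficient.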

[2] = target: T1, biotinylated beta-catenin (Homo sapiens, UniProt P35222); assay: Surface Plasmon Resonance (Biacore); format: binding
T1 sequence (P35222 1-781): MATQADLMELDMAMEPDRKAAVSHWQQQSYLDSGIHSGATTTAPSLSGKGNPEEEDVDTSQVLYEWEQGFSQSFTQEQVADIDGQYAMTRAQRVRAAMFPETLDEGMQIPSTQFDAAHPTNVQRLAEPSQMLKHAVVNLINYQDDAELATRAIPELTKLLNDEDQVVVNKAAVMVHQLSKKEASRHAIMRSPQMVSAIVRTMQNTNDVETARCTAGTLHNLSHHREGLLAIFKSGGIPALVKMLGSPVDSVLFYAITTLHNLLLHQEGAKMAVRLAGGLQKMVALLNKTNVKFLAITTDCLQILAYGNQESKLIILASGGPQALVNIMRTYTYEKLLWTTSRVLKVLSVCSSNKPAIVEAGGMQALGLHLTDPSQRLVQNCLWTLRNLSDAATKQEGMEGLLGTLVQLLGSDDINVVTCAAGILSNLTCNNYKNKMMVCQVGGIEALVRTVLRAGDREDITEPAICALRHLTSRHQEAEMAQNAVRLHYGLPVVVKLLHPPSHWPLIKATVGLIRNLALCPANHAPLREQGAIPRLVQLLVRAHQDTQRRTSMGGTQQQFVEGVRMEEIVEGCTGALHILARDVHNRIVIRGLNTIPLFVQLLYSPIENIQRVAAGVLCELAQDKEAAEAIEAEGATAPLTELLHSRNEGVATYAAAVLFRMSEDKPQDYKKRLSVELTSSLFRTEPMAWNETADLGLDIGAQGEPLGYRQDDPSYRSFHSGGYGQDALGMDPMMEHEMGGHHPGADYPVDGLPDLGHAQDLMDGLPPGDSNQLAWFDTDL
Description: Additionally or alternatively, binding to beta-catenin may be measured by Surface Plasmon Resonance. In an exemplary assay, approximately 6 nmol dried peptide diluted in buffer (50 mM Tris pH 8.0, 300 mM NaCl, 2% glycerol, 0.5 mM TCEP, 0.5 mM EDTA, 0.005% Tween-20, 1 mg/mL CM Dextran, 0.02% w/v sodium azide) was assayed on a Biacore X100 using the Biacore Biotin CAPture Kit (GE Healthcare) and biotinylated beta-catenin. Results were analyzed using the Biacore X100 Evaluation Software. […] FPO217c (Isomer 2) bound to the armadillo domain of β-catenin with a Kd of 2 nM.

[3] = target: T2, full-length beta-catenin (Axin site) (Homo sapiens, UniProt P35222); assay: Competition fluorescence polarization assay (Axin site probe); format: binding; conditions: competition fluorescence polarization, Table 2; read-out: in vitro FP EC50
T2 construct: 15 nM full-length beta-catenin, 20 nM FITC labeled peptide in buffer
T2 sequence (P35222 1-781): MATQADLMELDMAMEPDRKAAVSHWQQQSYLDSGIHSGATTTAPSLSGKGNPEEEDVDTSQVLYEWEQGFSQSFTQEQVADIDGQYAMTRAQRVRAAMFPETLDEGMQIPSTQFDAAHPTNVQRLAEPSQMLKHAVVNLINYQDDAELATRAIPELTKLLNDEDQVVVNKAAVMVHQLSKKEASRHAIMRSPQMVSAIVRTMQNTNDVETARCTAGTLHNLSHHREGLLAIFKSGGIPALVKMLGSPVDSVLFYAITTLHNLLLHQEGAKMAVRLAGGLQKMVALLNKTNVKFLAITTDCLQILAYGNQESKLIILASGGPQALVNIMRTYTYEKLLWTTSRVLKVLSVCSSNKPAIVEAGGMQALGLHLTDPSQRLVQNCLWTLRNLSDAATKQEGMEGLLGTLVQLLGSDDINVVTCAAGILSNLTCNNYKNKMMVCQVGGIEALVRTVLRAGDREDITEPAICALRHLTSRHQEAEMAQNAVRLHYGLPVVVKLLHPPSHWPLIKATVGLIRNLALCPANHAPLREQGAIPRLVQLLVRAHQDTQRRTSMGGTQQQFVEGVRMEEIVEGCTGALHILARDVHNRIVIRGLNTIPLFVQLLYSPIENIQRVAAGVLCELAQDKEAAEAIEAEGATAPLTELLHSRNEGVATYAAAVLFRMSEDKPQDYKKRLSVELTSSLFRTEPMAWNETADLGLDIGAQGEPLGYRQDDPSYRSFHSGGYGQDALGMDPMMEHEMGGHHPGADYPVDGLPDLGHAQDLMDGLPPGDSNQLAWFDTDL
Summary of the method: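 Competition FP: 15 nM full-length β-catenin pre-incubated 5 min with 20 nM FITC-labelled stapled Axin-site peptide, then titrated peptide added (3-fold series from 5 μM) for 15 min in the dark. Buffer 50 mM Tris pH 8.0, 250 mM NaCl, 2% glycerol, 0.5 mM EDTA; duplicate reads.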

[4] = Plasma PK in rats; format: in vivo; conditions: IV 0.5 mg/kg, male Sprague-Dawley rats
Description: (§1) FIG. 6. Exemplary pharmacokinetic properties. Peptides were formulated in 10% DMSO:90% saline and dosed by IV at 0.5 mg/kg per compound in three male Sprague-Dawley rats. Serial bleed time-points were taken at 2 min, 6 min, 10 min, 15 min, 30 min, 1, 2, 4, 6, 8, 12 and 24 h and analyzed by quantitative LC/MS using a Thermo Q-Exactive Focus LC/MS/MS. Samples were prepared by protein precipitation with MeOH. Data were fit to a two-compartment model.
as §1, with “Various technologies can be utilized to assess properties of provided agents, e.g., stapled peptides, in accordance with the present disclosure. In some embodiments, plasma PK methods are used to assess” for “FIG. 6. Exemplary”, “In an exemplary assay, peptides” for “Peptides”, “model. […] Exemplary data are presented, e.g., in FIG. 6.” for “model.”

[5] = Table 3 Part A, read-out: Solubility in DPBS
[6] = Biacore, biotinylated beta-catenin, read-out: Kd
[7] = Table 3 Part A, read-out: Binding Kd

Row | solubility ([1]; Table 2, read-out: Solubility) | solubility [1, 5] | Kd [2, 6] | Kd [2, 7] | EC50 [3] | half-life ([4]; rat, plasma) | solubility thermodynamic [1, 5] | solubility ([1]; read-out: solubility) | Kd ([2]; Table 2, read-out: Kd by SPR) | plasma half-life compared with FP0217c (Isomer 2) [4] | SMILES
1 | 7 µM (≈ 11.1 µg/mL) | 12 µM (≈ 19 µg/mL) | 2 nM | 4 nM | < 100 nM | > 1 h |  |  |  |  | CC[C@H](C)[C@@H]1NC(=O)[C@H](Cc2c[nH]cn2)NC(=O)[C@H](C)NC(=O)[C@H](CC(=O)O)NC(=O)[C@H](CC(C)C)NC(=O)[C@H]([C@@H](C)CC)NC(=O)[C@](C)(NC(=O)[C@H](C)NC(C)=O)CCCCCCC=CCOC(=O)N2CC[C@@](C(=O)N[C@@H](CCCNC(=N)N)C(=O)N[C@H](C(=O)N[C@@H](Cc3c[nH]c4ccccc34)C(N)=O)C(C)C)(C2)NC1=O (single isomer, unassigned) [FPO217c Isomer 2, Ac-AR8ILDAHIMBRVW (SEQ ID NO: 280)]
2 | 98 µM (≈ 158 µg/mL) |  | 7 nM | 4 nM | < 100 nM |  | 98 µM (≈ 158 µg/mL) | 98 µM (≈ 158 µg/mL) | 4 nM | shorter | CC[C@H](C)[C@@H]1NC(=O)[C@H](Cc2c[nH]cn2)NC(=O)[C@H](C)NC(=O)[C@H](CC(=O)O)NC(=O)[C@H](CC(C)C)NC(=O)[C@H]([C@@H](C)CC)NC(=O)[C@](C)(NC(=O)[C@H](C)NC(C)=O)CCN(C)C(=O)OCC=CCOC(=O)N2CC[C@@](C(=O)N[C@@H](CCCNC(=N)N)C(=O)N[C@H](C(=O)N[C@@H](Cc3c[nH]c4ccccc34)C(N)=O)C(C)C)(C2)NC1=O [FP0597c, Ac-A-MG-I-L-D-A-H-I-MB-R-V-W-NH2] (Ac-A[dαMeDab(Me)]ILDAHI[X1]RVW-NH2; linker 2-9 via X2)
